Reference: the OligoGym collection
Values joined by “and” are separate entries in the source; they are usually repeats but may differ in a detail not shown here. Equal entries are not always repeated. After the bases stand the sugars from the 5' end (letter, count) and the backbone: PS all phosphorothioate, else s phosphorothioate and o phosphodiester by linkage. Methylation of C is not given here. e = 2'-O-(2-methoxyethyl) (MOE); l = locked nucleic acid (LNA); d = 2'-deoxy (DNA)

How the values were obtained:
DGAT2 = conditions: ASO
SNHG14 = conditions: ASO, Human Neuronal Cell

Sequence	target mRNA inhibition (DGAT2; HepG2, 2.5 µM)	target mRNA inhibition (DGAT2; HepG2, 10 µM)	target mRNA inhibition (SNHG14; 7.5 µM)	other results
AAAAACATGACAGCCAGGGT (sugars e5 d10 e5, PS)	–	–	–	target mRNA inhibition (DGAT2; HepG2, 0.12 µM): 31%
AAAAACCACTGTTGCTGAGC (sugars e5 d10 e5, PS)	62%	92%	–	–
AAAATCCATGTCAGAGAGGC (sugars e5 d10 e5, PS)	64%	90%	–	–
AAACCACTGTTGCTGAGCTC (sugars e5 d10 e5, PS)	71% and 58%	84% and 73%	–	–
AAACTTAGGCATGCTTCCTC (sugars e5 d10 e5, PS)	84%	56%	–	–
AAAGATATAGTTCCTGGTGG (sugars e5 d10 e5, PS)	–	–	–	target mRNA inhibition (DGAT2; HepG2, 0.12 µM): 54%
AAAGGAGTTTGTGTTTCCCA (sugars e5 d10 e5, PS)	73%	91%	–	–
AAATGGTAGCCCCTTGTTGC (sugars e5 d10 e5, PS)	–	–	–	target mRNA inhibition (DGAT2; HepG2, 0.12 µM): 32%
AACACTCACAGCACTTTACC (sugars e5 d10 e5, PS)	–	–	–	target mRNA inhibition (DGAT2; HepG2, 0.12 µM): 4%
AACCAACTCTCAGCTACTCC (sugars e5 d10 e5, PS)	82% and 71%	93% and 97%	–	–
AAGCCCTTGCGGTTCCGCAG (sugars e5 d10 e5, PS)	–	–	–	target mRNA inhibition (DGAT2; HepG2, 0.12 µM): 67%
AAGCCTGGATGGTGGTTGCA (sugars e5 d10 e5, PS)	82% and 66%	91% and 82%	–	–
AAGGCACCCAGGCCCATGAT (sugars e5 d10 e5, PS)	–	–	–	target mRNA inhibition (DGAT2; HepG2, 0.12 µM): 46%
AAGGCCAGGCCCCTTCTGAA (sugars e5 d10 e5, PS)	–	–	–	target mRNA inhibition (DGAT2; HepG2, 0.12 µM): 32%
AATGCCAATGCCTAGGTCAC (sugars e5 d10 e5, PS)	72%	90%	–	–
ACAATGGGAATGGTATCGCA (sugars e5 d10 e5, PS)	59%	92%	–	–
ACACGCAGACCAGGACAGCT (sugars e5 d10 e5, PS)	–	–	–	target mRNA inhibition (DGAT2; HepG2, 0.12 µM): 46%
ACAGCAGCAGTCTAATCCAT (sugars e5 d10 e5, PS)	57%	87%	–	–
ACAGCTGTGATGACTTCCCA (sugars e5 d10 e5, PS)	88%	77%	–	–
ACAGGACCCACTGGAGCACT (sugars e3 d14 e3, PS)	–	–	–	target mRNA inhibition (DGAT2; HepG2, 0.12 µM): 61%
ACCAACTCTCAGCTACTCCC (sugars e5 d10 e5, PS)	95%	85%	–	–
ACCACTGTTGCTGAGCTCAT (sugars e5 d10 e5, PS)	67%	90%	–	–

Sequence	target mRNA inhibition (DGAT2; HepG2, 2.5 µM)	target mRNA inhibition (DGAT2; HepG2, 10 µM)	target mRNA inhibition (SNHG14; 7.5 µM)	other results
ACCAGGGCCTCCATGTACAT (sugars e3 d14 e3, PS)	27% and 24%	63% and 50%	–	target mRNA inhibition (DGAT2; HepG2, 0.12 µM): 84%; target mRNA inhibition (DGAT2; HepG2, 20 µM): 26%
ACCAGGGCCTCCATGTACAT (sugars e5 d10 e5, PS)	30%	32% and 50%	–	target mRNA inhibition (DGAT2; HepG2, 20 µM): 48%
ACCCACTGGAGCACTGAGAT (sugars e3 d14 e3, PS)	–	–	–	target mRNA inhibition (DGAT2; HepG2, 0.12 µM): 59%
ACCCACTGGAGCACTGAGAT (sugars e5 d10 e5, PS)	–	–	–	target mRNA inhibition (DGAT2; HepG2, 0.12 µM): 72%
ACTGGTCCTGCAGTTTCAGG (sugars e5 d10 e5, PS)	–	–	–	target mRNA inhibition (DGAT2; HepG2, 0.12 µM): 55%
AGAAAAAGCAACCAAAGCAC (sugars e5 d10 e5, PS)	19%	82%	–	–
AGAAGAGCAAAGGCTTGCTT (sugars e5 d10 e5, PS)	74% and 72%	94% and 93%	–	–
AGAGAGACAATGAGTAAGGG (sugars e5 d10 e5, PS)	68%	79%	–	–
AGAGGCCCTGGACACTGGCC (sugars e5 d10 e5, PS)	–	–	–	target mRNA inhibition (DGAT2; HepG2, 0.12 µM): 32%
AGCAATGCCAATGCCTAGGT (sugars e5 d10 e5, PS)	82%	93%	–	–
AGCATTGCCACTCCCATTCT (sugars e3 d14 e3, PS)	–	–	–	target mRNA inhibition (DGAT2; HepG2, 0.12 µM): 67%
AGCATTGCCACTCCCATTCT (sugars e5 d10 e5, PS)	–	–	–	target mRNA inhibition (DGAT2; HepG2, 0.12 µM): 74%
AGCCTGCCACAGGGCCCTTT (sugars e5 d10 e5, PS)	–	–	–	target mRNA inhibition (DGAT2; HepG2, 0.12 µM): 37%
AGCCTGGACAAGTCCTGCCC (sugars e3 d14 e3, PS)	35% and 53%	84%	–	target mRNA inhibition (DGAT2; HepG2, 0.12 µM): 82%; target mRNA inhibition (DGAT2; HepG2, 20 µM): 59%
AGCTCAGAGACTCAGCCGCA (sugars e3 d14 e3, PS)	–	–	–	target mRNA inhibition (DGAT2; HepG2, 0.12 µM): 77%
AGCTCTCAAGTCTTCCTCCT (sugars e5 d10 e5, PS)	62% and 76%	89% and 92%	–	–
AGCTGTGATGACTTCCCAGG (sugars e5 d10 e5, PS)	52%	91%	–	–
AGGACCCCGGAGTAGGCGGC (sugars e3 d14 e3, PS)	–	–	–	target mRNA inhibition (DGAT2; HepG2, 0.12 µM): 76%
AGGAGTTCTCGAATATCCCT (sugars e5 d10 e5, PS)	55% and 50%	87%	–	–
AGGAGTTTGTGTTTCCCATT (sugars e5 d10 e5, PS)	–	–	–	target mRNA inhibition (DGAT2; HepG2, 0.12 µM): 39%
AGGATGCAGGGTTACCCAGC (sugars e5 d10 e5, PS)	81%	71%	–	–
AGGCAAAGTAACATACCTGC (sugars e5 d10 e5, PS)	71% and 74%	94% and 91%	–	–

Sequence	target mRNA inhibition (DGAT2; HepG2, 2.5 µM)	target mRNA inhibition (DGAT2; HepG2, 10 µM)	target mRNA inhibition (SNHG14; 7.5 µM)	other results
AGGCATGGAGCTCAGAGACT (sugars e5 d10 e5, PS)	39%	84%	–	target mRNA inhibition (DGAT2; HepG2, 0.12 µM): 69% and 83%; target mRNA inhibition (DGAT2; HepG2, 20 µM): 51%
AGGGCCAGTTTCACAAAGCC (sugars e5 d10 e5, PS)	–	–	–	target mRNA inhibition (DGAT2; HepG2, 0.12 µM): 33%
AGGGTTCATGGATCCCC (sugars e3 d10 e4, PS)	46%	76%	–	–
AGGTAAGGCCGTATGCCTGG (sugars e2 d13 e5, PS)	–	–	–	target mRNA inhibition (DGAT2; HepG2, 0.12 µM): 63%
AGGTAGAGTTCTATTGCTTC (sugars e5 d10 e5, PS)	81%	88% and 92%	–	–
AGGTTGTGTGTCTTCACCAG (sugars e2 d13 e5, PS)	–	–	–	target mRNA inhibition (DGAT2; HepG2, 0.12 µM): 61%
TTGATTCAATTCCCTTA (sugars l2 d10 l1 d2 l2, PS)	–	–	69%	–
TTGATTCAATTCCCTTA (sugars l2 d11 l4, PS)	–	–	–	target mRNA inhibition (SNHG14; 0.2 µM): 60%; target mRNA inhibition (SNHG14; 1 µM): 69%
TTGATTCAATTCCCTTA (sugars lddllddddddllddll, PS)	–	–	55%	–
TTGATTCAATTCCCTTA (sugars ldlldddddddldldll, PS)	–	–	68%	–
TTGATTCAATTCCCTTA (sugars lldddddddddldldll, PS)	–	–	61%	–
TTGATTCAATTCCCTTA (sugars llddldddddddlddll, PS)	–	–	67%	–
TTGATTCCACCATTAA (sugars l3 d10 l3, PS)	–	–	–	target mRNA inhibition (SNHG14; 0.2 µM): 49%; target mRNA inhibition (SNHG14; 1 µM): 28%
TTGTCAATCTTTATTCT (sugars l4 d11 l2, PS)	–	–	–	target mRNA inhibition (SNHG14; 0.2 µM): 33%; target mRNA inhibition (SNHG14; 1 µM): 45%
TTTACACTTAATTATACTTC (sugars lddldldddddddlldllll, PS)	–	–	36%	–
TTTACACTTAATTATACTTC (sugars ldlllddddddddlllddll, PS)	–	–	48%	–
TTTACTCTGCAATACA (sugars l2 d10 l4, PS)	–	–	–	target mRNA inhibition (SNHG14; 0.2 µM): 45%; target mRNA inhibition (SNHG14; 1 µM): 60%
TTTATACCTTTCTTTAACCC (sugars l1 d13 l1 d3 l2, PS)	–	–	57%	–
TTTATACCTTTCTTTAACCC (sugars l1 d14 l1 d2 l2, PS)	–	–	53%	–
TTTATCAATATCTTCTCA (sugars lddddlddddddldllll, PS)	–	–	61%	–
TTTATCAATATCTTCTCA (sugars lddlllddddddddldll, PS)	–	–	67%	–
TTTATCAATATCTTCTCA (sugars lldldldddddddlldll, PS)	–	–	66%	–

Sequence	target mRNA inhibition (DGAT2; HepG2, 2.5 µM)	target mRNA inhibition (DGAT2; HepG2, 10 µM)	target mRNA inhibition (SNHG14; 7.5 µM)	other results
TTTATCAATATCTTCTCA (sugars lllddlddddddldldll, PS)	–	–	37%	–
TTTATCAATATCTTCTCAC (sugars lldldlddddddddldlll, PS)	–	–	63%	–
TTTATCAATATCTTCTCACT (sugars ldddddldddddddlddlll, PS)	–	–	45%	–
TTTATCAATATCTTCTCACT (sugars lddddlddddddddldddll, PS)	–	–	34%	–
TTTATCAATATCTTCTCACT (sugars lddlddddddddddlddlll, PS)	–	–	53%	–
TTTATCAATATCTTCTCACT (sugars lddlddldddddddddddll, PS)	–	–	28%	–
TTTATCTCATGACCACC (sugars l2 d11 l4, PS)	–	–	–	target mRNA inhibition (SNHG14; 0.2 µM): 54%; target mRNA inhibition (SNHG14; 1 µM): 56%
TTTATGTTTACTTCAT (sugars l3 d10 l3, PS)	–	–	–	target mRNA inhibition (SNHG14; 0.2 µM): 33%; target mRNA inhibition (SNHG14; 1 µM): 47%
TTTATTAGATTACTCC (sugars l2 d10 l4, PS)	–	–	–	target mRNA inhibition (SNHG14; 0.2 µM): 24%; target mRNA inhibition (SNHG14; 1 µM): 17%
TTTCCATTTATTTCCATTT (sugars lddddldddddddldllll, PS)	–	–	54%	–
TTTCCATTTATTTCCATTT (sugars lddldldddddddldddll, PS)	–	–	53%	–
TTTTAACCAGAGTGGC (sugars l1 d11 l4, PS)	–	–	53%	–
TTTTATACCTTTCTTTAACC (sugars ldlddddddddddlddllll, PS)	–	–	64%	–
TTTTTATACCTTTCTTTAAC (sugars ldddlldddddddlddddll, PS)	–	–	15%	–
TTTTTATACCTTTCTTTAAC (sugars lddldddddddddldlldll, PS)	–	–	61%	–
TTTTTATACCTTTCTTTAAC (sugars ldlddldddddddlldddll, PS)	–	–	23%	–
TTTTTATACCTTTCTTTAAC (sugars lldllddddddddllddlll, PS)	–	–	60%	–
TTTTTTCTTACTATCTTCAA (sugars l1 d13 l1 d2 l3, PS)	–	–	60%	–
TTTTTTCTTACTATCTTCAA (sugars ldldldldddddddldddll, PS)	–	–	57%	–
TTTTTTTCTTACTATCTTCA (sugars ldddllddddddddddldll, PS)	–	–	50%	–
TTTTTTTCTTACTATCTTCA (sugars ldlldddddddddlddldll, PS)	–	–	59%	–
